Measurements reported in patent publication US4327097A, “Novel penicillins” (Toyama Chemical Co., Ltd., priority 1974, dated 1982).
Values after ≈ are worked out from the molar mass of the structure shown.

Legend:
Pseudomonas aeruginosa = experiment: MIC against clinical isolates; assay type: cell-based; conditions: unit assumed; for MIC Pseudomonas aeruginosa GN / MIC Pseudomonas aeruginosa GN4 / MIC Pseudomonas aeruginosa GN 82 / MIC Pseudomonas aeruginosa GN 221 / MIC Pseudomonas aeruginosa GN 376 / MIC Pseudomonas aeruginosa GN 1035 / MIC Pseudomonas aeruginosa GN 1091 / MIC Pseudomonas aeruginosa GN 2565: Table 6-3, clinical isolate; for MIC Pseudomonas aeruginosa GN: strain number not given; for MIC Pseudomonas aeruginosa S-1: Table 6-4, clinical isolate
Proteus rettgeri = experiment: MIC against clinical isolates; assay type: cell-based; conditions: Table 6-5, clinical isolate; unit assumed
Proteus mirabilis = experiment: MIC against clinical isolates; assay type: cell-based; conditions: Table 6-5, clinical isolate; unit assumed
Proteus vulgaris = experiment: MIC against clinical isolates; assay type: cell-based; conditions: Table 6-5, clinical isolate; unit assumed
Proteus morganii = experiment: MIC against clinical isolates; assay type: cell-based; conditions: Table 6-5, clinical isolate; unit assumed
[1] = test system: Staphylococcus aureus 209p; experiment: MIC, plate method, standard strains; assay type: cell-based; conditions: Table 4, standard strain; unit assumed
Method in brief: (§1)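 Heart infusion agar, pH 7.4, plate method. Inoculum: 10^4 cells/plate (10^6 cells/ml). Read-out: MIC.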

Proteus vulgaris 3027 = experiment: MIC, plate method, standard strains; assay type: cell-based; conditions: Table 4, standard strain; unit assumed
Method in brief: as §1

Klebsiella pneumoniae [2] = experiment: MIC, plate method, standard strains; assay type: cell-based; conditions: Table 4, standard strain; unit assumed
Method in brief: as §1

Escherichia coli NIHJ = experiment: MIC, plate method, standard strains; assay type: cell-based; conditions: Table 4, standard strain; unit assumed
Method in brief: as §1

[3] = test system: Pseudomonas aeruginosa I.F.O.; experiment: MIC, plate method, standard strains; assay type: cell-based; conditions: Table 4, standard strain; unit assumed
Method in brief: as §1

Klebsiella pneumoniae [4] = experiment: MIC against clinical isolates; assay type: cell-based; conditions: Table 6-4, clinical isolate; unit assumed
Staphylococcus aureus = experiment: MIC against clinical isolates; assay type: cell-based; conditions: Table 6-1, clinical isolate; unit assumed
[5] = target: T1, β-lactamase, Proteus vulgaris GN 76 (Proteus vulgaris, UniProt P52664); experiment: Resistant activity against β-lactamase, iodometric assay; assay type: biochemical; conditions: control Cephalorizine = 100
T1 construct: By using the supernatant of enzyme fluid; endogenous in cells; host or cells: Proteus vulgaris GN 76 (penicillin G-induced cells, sonicated, 15,000 r.p.m. supernatant)
Description: (§2) (4) Resistant activity of each cephalosporin compound against β-lactamase, Proteus vulgaris GN 76 and Escherichia freundii GN 346:
(§3) The resistant activity of each cephalosporin compound against β-lactamase was measured in the manner described below.
(§4) β-lactamase was prepared from Proteus vulgaris GN 76 and Escherichia freundii GN 346. 10 ml of an overnight culture in Heart Infusion broth was diluted with 100 ml of a medium containing 2 g of yeast extract, 10 g of polypeptone, 2 g of glucose, 7 g of disodium hydrogen phosphate, 2 g of potassium dihydrogen phosphate, 1.2 g of ammonium sulfate and 0.4 g of magnesium sulfate, per liter, and incubated with shaking at 37° C. After incubation of 2 hrs, Penicillin G (50 μg/ml) was added as the inducer, and further incubated for 2 hrs. The resulting cells were collected by centrifugation (5,000 r.p.m.×10 min.) and washed two times with 0.1 M phosphate buffer (pH 7.0). Subsequently, the cells were subjected to sonication (20 KHz, 5 min.) and then centrifuged at 15,000 r.p.m. for 60 min. By using the supernatant of enzyme fluid, the stability of each compound against β-lactamase was determined by the iodometric assay method. Each numeral shown in Table 7-2 is a relative activity value calculated by assuming as 100 the activity of the control Cephalorizine.

[6] = target: β-lactamase, Escherichia freundii GN 346 (Citrobacter freundii, UniProt Q46041); experiment: as above; assay type: biochemical; conditions: control Cephalorizine = 100
Description: as §2, §3, §4

Escherichia coli = experiment: MIC against clinical isolates; assay type: cell-based; conditions: Table 6-2, clinical isolate; unit assumed

T1 sequence (P52664 30-300): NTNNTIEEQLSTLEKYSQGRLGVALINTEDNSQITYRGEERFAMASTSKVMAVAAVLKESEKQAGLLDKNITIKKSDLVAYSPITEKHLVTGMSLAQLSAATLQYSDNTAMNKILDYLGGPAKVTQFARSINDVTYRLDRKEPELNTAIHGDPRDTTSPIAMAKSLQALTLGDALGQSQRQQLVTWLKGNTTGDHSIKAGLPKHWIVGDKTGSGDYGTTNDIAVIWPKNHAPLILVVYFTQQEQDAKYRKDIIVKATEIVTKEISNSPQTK
β-lactamase, Escherichia freundii GN 346, sequence (Q46041 entry or part of it): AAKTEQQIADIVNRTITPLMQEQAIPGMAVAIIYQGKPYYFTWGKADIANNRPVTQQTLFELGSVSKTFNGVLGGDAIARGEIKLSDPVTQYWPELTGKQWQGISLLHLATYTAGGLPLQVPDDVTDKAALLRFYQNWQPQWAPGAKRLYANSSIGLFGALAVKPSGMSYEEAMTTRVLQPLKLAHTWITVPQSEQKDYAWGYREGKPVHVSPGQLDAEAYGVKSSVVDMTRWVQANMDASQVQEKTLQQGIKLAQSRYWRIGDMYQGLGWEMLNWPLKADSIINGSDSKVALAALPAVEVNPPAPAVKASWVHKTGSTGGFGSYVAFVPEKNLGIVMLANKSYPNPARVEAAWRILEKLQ

`CCCCN1CCN(C(=O)NC(C(=O)NC2C(=O)N3C(C(=O)O)=C(CSc4nnnn4C)CSC23)c2ccccc2)C(=O)C1=O` (single isomer, unassigned) [Compound No. 73] showed an MIC Pseudomonas aeruginosa GN (Pseudomonas aeruginosa) of 12.5 µg/mL (≈ 19 µM), an MIC Pseudomonas aeruginosa GN4 (Pseudomonas aeruginosa) of 12.5 µg/mL (≈ 19 µM) and an MIC Pseudomonas aeruginosa GN 82 (Pseudomonas aeruginosa) of 12.5 µg/mL (≈ 19 µM). The MIC Pseudomonas aeruginosa GN 221 (Pseudomonas aeruginosa) was 12.5 µg/mL (≈ 19 µM), the MIC Pseudomonas aeruginosa GN 376 (Pseudomonas aeruginosa) was 12.5 µg/mL (≈ 19 µM) and the MIC Pseudomonas aeruginosa GN 1035 (Pseudomonas aeruginosa) was 50 µg/mL (≈ 76 µM). For the same compound, the MIC Pseudomonas aeruginosa GN 1091 (Pseudomonas aeruginosa) was 12.5 µg/mL (≈ 19 µM), the MIC Pseudomonas aeruginosa GN 2565 (Pseudomonas aeruginosa) was 25 µg/mL (≈ 38 µM) and the MIC Pseudomonas aeruginosa S-1 (Pseudomonas aeruginosa) was 50 µg/mL (≈ 76 µM). The MIC Proteus rettgeri (Proteus rettgeri) was 3.13 µg/mL (≈ 4.76 µM), the MIC Proteus mirabilis (Proteus mirabilis) was 0.39 µg/mL (≈ 0.593 µM) and the MIC Proteus vulgaris (Proteus vulgaris) was 0.78 µg/mL (≈ 1.19 µM). It also gave an MIC Proteus morganii (Proteus morganii) of 0.78 µg/mL (≈ 1.19 µM), an MIC Staphylococcus aureus 209p [1] of 1.57 µg/mL (≈ 2.39 µM) and an MIC Proteus vulgaris 3027 (Proteus vulgaris 3027) of 1.57 µg/mL (≈ 2.39 µM). It also gave an MIC Klebsiella pneumoniae (Klebsiella pneumoniae [2]) of 0.2 µg/mL (≈ 0.304 µM), an MIC Escherichia coli NIHJ (Escherichia coli NIHJ) of under 0.1 µg/mL and an MIC Pseudomonas aeruginosa I.F.O. [3] of 25 µg/mL (≈ 38 µM). For the same compound, the MIC Klebsiella pneumoniae GN 917 (Klebsiella pneumoniae [4]) was 0.78 µg/mL (≈ 1.19 µM), the MIC Klebsiella pneumoniae GN 4081 (Klebsiella pneumoniae [4]) was 1.56 µg/mL (≈ 2.37 µM) and the MIC Staphylococcus aureus F-1 (Staphylococcus aureus) was 1.56 µg/mL (≈ 2.37 µM). The MIC Staphylococcus aureus MS 8588 (Staphylococcus aureus) was 1.56 µg/mL (≈ 2.37 µM), the MIC Staphylococcus aureus MS 8596 (Staphylococcus aureus) was 3.13 µg/mL (≈ 4.76 µM) and the MIC Staphylococcus aureus MS 8619 (Staphylococcus aureus) was 1.56 µg/mL (≈ 2.37 µM). The MIC Staphylococcus aureus MS 8684 (Staphylococcus aureus) was 1.56 µg/mL (≈ 2.37 µM), the “Relative activity (%) against β-lactamase, Pr. vulgaris GN 76” value (shortened to “Relative activity (%) … Pr. vulgaris GN 76”) [5] was 4% and the “Relative activity (%) against β-lactamase, E. freundii GN 346” value (from here on “Relative activity (%) … E. freundii GN 346”) [6] was 0.1%. The MIC Escherichia coli GN 3435 (Escherichia coli) was 0.78 µg/mL (≈ 1.19 µM), the MIC Escherichia coli GN 3452 (Escherichia coli) was 0.78 µg/mL (≈ 1.19 µM) and the MIC Escherichia coli GN 3465 (Escherichia coli) was 1.56 µg/mL (≈ 2.37 µM). The MIC Escherichia coli K-2 (Escherichia coli) was 1.56 µg/mL (≈ 2.37 µM) and the MIC Escherichia coli K-4 (Escherichia coli) was 0.78 µg/mL (≈ 1.19 µM).
In the case of `CCCCCCCCN1CCN(C(=O)N[C@@H](C(=O)NC2C(=O)N3C(C(=O)O)=C(CSc4nnnn4C)CSC23)c2ccccc2)C(=O)C1=O` (single isomer, unassigned) [Compound No. 74], the MIC Pseudomonas aeruginosa GN (Pseudomonas aeruginosa) is reported as 25 µg/mL (≈ 35 µM), the MIC Pseudomonas aeruginosa GN4 (Pseudomonas aeruginosa) is reported as 50 µg/mL (≈ 70 µM) and the MIC Pseudomonas aeruginosa GN 82 (Pseudomonas aeruginosa) is reported as 25 µg/mL (≈ 35 µM). For the same compound, the MIC Pseudomonas aeruginosa GN 221 (Pseudomonas aeruginosa) was 50 µg/mL (≈ 70 µM), the MIC Pseudomonas aeruginosa GN 376 (Pseudomonas aeruginosa) was 50 µg/mL (≈ 70 µM) and the MIC Pseudomonas aeruginosa GN 1035 (Pseudomonas aeruginosa) was 25 µg/mL (≈ 35 µM). For the same compound, the MIC Pseudomonas aeruginosa GN 1091 (Pseudomonas aeruginosa) was 25 µg/mL (≈ 35 µM), the MIC Pseudomonas aeruginosa GN 2565 (Pseudomonas aeruginosa) was 50 µg/mL (≈ 70 µM) and the MIC Pseudomonas aeruginosa S-1 (Pseudomonas aeruginosa) was 50 µg/mL (≈ 70 µM). For the same compound, the MIC Proteus rettgeri (Proteus rettgeri) was 6.25 µg/mL (≈ 8.76 µM), the MIC Proteus mirabilis (Proteus mirabilis) was 0.39 µg/mL (≈ 0.546 µM) and the MIC Proteus vulgaris (Proteus vulgaris) was 0.78 µg/mL (≈ 1.09 µM). For the same compound, the MIC Proteus morganii (Proteus morganii) was 0.78 µg/mL (≈ 1.09 µM), the MIC Staphylococcus aureus 209p [1] was 1.57 µg/mL (≈ 2.2 µM) and the MIC Proteus vulgaris 3027 (Proteus vulgaris 3027) was 1.57 µg/mL (≈ 2.2 µM). The MIC Klebsiella pneumoniae (Klebsiella pneumoniae [2]) was 0.79 µg/mL (≈ 1.11 µM), the MIC Escherichia coli NIHJ (Escherichia coli NIHJ) was 0.2 µg/mL (≈ 0.28 µM) and the MIC Pseudomonas aeruginosa I.F.O. [3] was 12.5 µg/mL (≈ 17.5 µM). The MIC Klebsiella pneumoniae GN 917 (Klebsiella pneumoniae [4]) was 1.56 µg/mL (≈ 2.19 µM), the MIC Klebsiella pneumoniae GN 4081 (Klebsiella pneumoniae [4]) was 1.56 µg/mL (≈ 2.19 µM) and the MIC Staphylococcus aureus F-1 (Staphylococcus aureus) was 0.78 µg/mL (≈ 1.09 µM). For the same compound, the MIC Staphylococcus aureus MS 8588 (Staphylococcus aureus) was 0.78 µg/mL (≈ 1.09 µM), the MIC Staphylococcus aureus MS 8596 (Staphylococcus aureus) was 0.78 µg/mL (≈ 1.09 µM) and the MIC Staphylococcus aureus MS 8619 (Staphylococcus aureus) was 0.78 µg/mL (≈ 1.09 µM). For the same compound, the MIC Staphylococcus aureus MS 8684 (Staphylococcus aureus) was 0.78 µg/mL (≈ 1.09 µM), the “Relative activity (%) … Pr. vulgaris GN 76” value [5] was 5% and the “Relative activity (%) … E. freundii GN 346” value [6] was 0.03%. The MIC Escherichia coli GN 3435 (Escherichia coli) was 0.78 µg/mL (≈ 1.09 µM), the MIC Escherichia coli GN 3452 (Escherichia coli) was 1.56 µg/mL (≈ 2.19 µM) and the MIC Escherichia coli GN 3465 (Escherichia coli) was 1.56 µg/mL (≈ 2.19 µM). For the same compound, the MIC Escherichia coli K-2 (Escherichia coli) was 3.13 µg/mL (≈ 4.38 µM) and the MIC Escherichia coli K-4 (Escherichia coli) was 1.56 µg/mL (≈ 2.19 µM).
Compound `CCN1CCN(C(=O)NC(C(=O)NC2C(=O)N3C(C(=O)O)=C(CSc4nnnn4C)CSC23)c2ccc(O)cc2)C(=O)C1=O` (stereo not drawn) [Compound No. 72] has an MIC Pseudomonas aeruginosa GN (Pseudomonas aeruginosa) of 12.5 µg/mL (≈ 19.4 µM), an MIC Pseudomonas aeruginosa GN4 (Pseudomonas aeruginosa) of 12.5 µg/mL (≈ 19.4 µM) and an MIC Pseudomonas aeruginosa GN 82 (Pseudomonas aeruginosa) of 6.25 µg/mL (≈ 9.68 µM). The MIC Pseudomonas aeruginosa GN 221 (Pseudomonas aeruginosa) was 6.25 µg/mL (≈ 9.68 µM), the MIC Pseudomonas aeruginosa GN 376 (Pseudomonas aeruginosa) was 6.25 µg/mL (≈ 9.68 µM) and the MIC Pseudomonas aeruginosa GN 1035 (Pseudomonas aeruginosa) was 25 µg/mL (≈ 38.7 µM). The MIC Pseudomonas aeruginosa GN 1091 (Pseudomonas aeruginosa) was 6.25 µg/mL (≈ 9.68 µM), the MIC Pseudomonas aeruginosa GN 2565 (Pseudomonas aeruginosa) was 25 µg/mL (≈ 38.7 µM) and the MIC Pseudomonas aeruginosa S-1 (Pseudomonas aeruginosa) was 12.5 µg/mL (≈ 19.4 µM). It also gave an MIC Proteus rettgeri (Proteus rettgeri) of 1.56 µg/mL (≈ 2.42 µM), an MIC Proteus mirabilis (Proteus mirabilis) of 0.78 µg/mL (≈ 1.21 µM) and an MIC Proteus vulgaris (Proteus vulgaris) of 0.39 µg/mL (≈ 0.604 µM). For the same compound, the MIC Proteus morganii (Proteus morganii) was 0.78 µg/mL (≈ 1.21 µM), the MIC Staphylococcus aureus 209p [1] was under 1.57 µg/mL and the MIC Proteus vulgaris 3027 (Proteus vulgaris 3027) was 0.4 µg/mL (≈ 0.62 µM). For the same compound, the MIC Klebsiella pneumoniae (Klebsiella pneumoniae [2]) was under 0.1 µg/mL, the MIC Escherichia coli NIHJ (Escherichia coli NIHJ) was under 0.1 µg/mL and the MIC Pseudomonas aeruginosa I.F.O. [3] was 6.25 µg/mL (≈ 9.68 µM). It also gave an MIC Klebsiella pneumoniae GN 917 (Klebsiella pneumoniae [4]) of 0.2 µg/mL (≈ 0.31 µM), an MIC Klebsiella pneumoniae GN 4081 (Klebsiella pneumoniae [4]) of 1.56 µg/mL (≈ 2.42 µM) and an MIC Staphylococcus aureus F-1 (Staphylococcus aureus) of 1.56 µg/mL (≈ 2.42 µM). The MIC Staphylococcus aureus MS 8588 (Staphylococcus aureus) was 1.56 µg/mL (≈ 2.42 µM), the MIC Staphylococcus aureus MS 8596 (Staphylococcus aureus) was 3.13 µg/mL (≈ 4.85 µM) and the MIC Staphylococcus aureus MS 8619 (Staphylococcus aureus) was 1.56 µg/mL (≈ 2.42 µM). For the same compound, the MIC Staphylococcus aureus MS 8684 (Staphylococcus aureus) was 1.56 µg/mL (≈ 2.42 µM), the “Relative activity (%) … Pr. vulgaris GN 76” value [5] was 7% and the “Relative activity (%) … E. freundii GN 346” value [6] was 0.2%. It also gave an MIC Escherichia coli GN 3435 (Escherichia coli) of 0.1 µg/mL (≈ 0.155 µM), an MIC Escherichia coli GN 3452 (Escherichia coli) of 0.2 µg/mL (≈ 0.31 µM) and an MIC Escherichia coli GN 3465 (Escherichia coli) of 1.56 µg/mL (≈ 2.42 µM). The MIC Escherichia coli K-2 (Escherichia coli) was 0.39 µg/mL (≈ 0.604 µM) and the MIC Escherichia coli K-4 (Escherichia coli) was 0.39 µg/mL (≈ 0.604 µM).
